Values after ≈ are worked out from the molar mass of the structure shown. Square brackets hold non-standard residues; d marks the D form. Peptide text beside a SMILES is read from it.
Experiments:
MTB = conditions: peptide 14D combined with another peptide; clinical trial, 255 samples from adults, routine test; cited from earlier work
MDR-TB = format: cell-based, Mycobacterium tuberculosis; set-up: key: Cord formation like wild type (without peptide) was classified as “normal”; no cord formation was detected, and they were classified as “not observed”; conditions: 10 µg/mL peptide; Nikon Ni-E microscope
M. tuberculosis H37Rv [1] = conditions: microdilution broth, 96-well, 2 × 10^5 CFU/mL, 37 °C 14 days, resazurin 48 h; conducted twice with three technical replicates each
M. tuberculosis H37Rv [2] = format: cell-based, Mycobacterium tuberculosis; set-up: key to Cord Formation at 10 µg/mL, H37Rv: Cord formation like wild type (without peptide) was classified as “normal”; no cord formation was detected, and they were classified as “not observed”; conditions: for Cord Formation at 10 µg/mL, H37Rv: 10 µg/mL peptide, Nikon Ni-E microscope
M. tuberculosis = format: cell-based, Mycobacterium tuberculosis; conditions: for TTP Values at Different Peptide Concentrations, 30 µg/mL: purified peptide 30 µg/mL, MGIT, BD BACTEC MGIT 320, TB alone 12 d 4 h

Compound	increase in sample positivity rates (MTB) [%]	Cord Formation at 10 µg/mL, MDR-TB (MDR-TB)	MIC in µg/mL, H37Rv (M. tuberculosis H37Rv [1]) [µg/mL]	Cord Formation at 10 µg/mL, H37Rv (M. tuberculosis H37Rv [2])	effect on cord formation (M. tuberculosis H37Rv [2]; 1 and 10 µg/mL peptide)	TTP Values at Different Peptide Concentrations, 30 µg/mL (M. tuberculosis)	prolongation of TTP compared to the wild type (M. tuberculosis; 3 µg/mL purified peptide)	reduction of TTP compared to the wild-type peptide 14D (M. tuberculosis; 3 µg/mL purified peptide) [h]	reduction of TTP relative to the untreated control (M. tuberculosis; 3 µg/mL purified peptide) [h]
CC[C@@H](C)[C@@H](NC(=O)[C@@H](CCCCN)NC(=O)[C@H](N)Cc1c[nH]c2ccccc12)C(=O)N[C@@H](C(=O)N[C@H](Cc1ccccc1)C(=O)N[C@H](Cc1c[nH]c2ccccc12)C(=O)N[C@H](Cc1c[nH]c2ccccc12)C(=O)N[C@H](CCCNC(=N)N)C(=O)N[C@H](CCCNC(=N)N)C(N)=O)C(C)C [peptide 14D] (H-[dW][dK][dI][dV][dF][dW][dW][dR][dR]-NH2)	46	not observed	>50	not observed	diminish cord formation	–	–	–	–
CC[C@@H](C)[C@@H](NC(=O)[C@@H](CCCCN)NC(=O)[C@H](N)Cc1c[nH]c2ccccc12)C(=O)N[C@H](CO)C(=O)N[C@H](Cc1ccccc1)C(=O)N[C@H](Cc1c[nH]c2ccccc12)C(=O)N[C@H](Cc1c[nH]c2ccccc12)C(=O)N[C@H](CCCNC(=N)N)C(=O)N[C@H](CCCNC(=N)N)C(N)=O [wkisfwwrr] (H-[dW][dK][dI][dS][dF][dW][dW][dR][dR]-NH2; N-terminus assumed)	–	normal	20 (≈ 14.7 µM)	normal	–	–	–	–	–
CC[C@@H](C)[C@@H](NC(=O)[C@@H](CCCCN)NC(=O)[C@H](N)Cc1c[nH]c2ccccc12)C(=O)N[C@@H](C(=O)N[C@H](Cc1ccccc1)C(=O)NCC(=O)N[C@H](Cc1c[nH]c2ccccc12)C(=O)N[C@H](CCCNC(=N)N)C(=O)N[C@H](CCCNC(=N)N)C(N)=O)C(C)C [wkivfGwrr] (H-[dW][dK][dI][dV][dF]G[dW][dR][dR]-NH2; N-terminus assumed)	–	normal	20 (≈ 16 µM)	normal	–	neg (55 d)	–	–	–
CC[C@@H](C)[C@@H](NC(=O)[C@@H](CCCCN)NC(=O)[C@H](N)Cc1c[nH]c2ccccc12)C(=O)N[C@@H](C(=O)N[C@H](Cc1ccccc1)C(=O)N[C@H](CC(=O)O)C(=O)N[C@H](Cc1c[nH]c2ccccc12)C(=O)N[C@H](CCCNC(=N)N)C(=O)N[C@H](CCCNC(=N)N)C(N)=O)C(C)C [wkivfdwrr] (H-[dW][dK][dI][dV][dF][dD][dW][dR][dR]-NH2)	–	not observed	20 (≈ 15.3 µM)	not observed	–	neg (55 d)	approximately 22 days	–	–
CC[C@@H](C)[C@@H](NC(=O)[C@@H](CCCCN)NC(=O)[C@H](N)Cc1c[nH]c2ccccc12)C(=O)N[C@@H](C(=O)N[C@H](Cc1ccccc1)C(=O)N[C@H](CC(N)=O)C(=O)N[C@H](Cc1c[nH]c2ccccc12)C(=O)N[C@H](CCCNC(=N)N)C(=O)N[C@H](CCCNC(=N)N)C(N)=O)C(C)C [wkivfnwrr] (H-[dW][dK][dI][dV][dF][dN][dW][dR][dR]-NH2; N-terminus assumed)	–	normal	20 (≈ 15.3 µM)	normal	–	–	–	–	–
NH2-wkivfiwrr-CONH2 [14D, position 6 w substituted by i, C-terminal amidated]	–	–	–	–	–	–	–	25	56
